Patent US20020107197A1, “Ligands for G protein coupled receptors and methods of using them” (priority 2000, published 2002)

Assays:
GPR4 [1] = molecular target: T1, GPR4 (Homo sapiens, UniProt P46093); assay: SRE luciferase reporter in GPR4-transfected HEK293 cells; assay type: cell-based; conditions: GPR4-transfected HEK293 cells; for EC50: read-out: EC50 for the activation of SRE; for activation of SRE reporter: lipid 1 μM
T1 construct: were used to generate full length GPR4, which was digested with EcoRI and Xba I and cloned into the pBs3HA vector; expressed in transfected cells
Method in brief: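 HEK293 cells, vector-, GPR4- or TDAG8-transfected, co-transfected with pSRE-Luc, serum-starved 16 h, then given SPC or other lipids in serum-free RPMI 1640 for 10 h before luciferase readout from lysates. Where used, PTX (100 ng/ml) added during starvation; C3-exoenzyme plasmid co-transfected. Quadruplicates, Student's t test, p<0.05.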

endogenous PAF receptor = molecular target: T2, endogenous PAF receptor (Homo sapiens, UniProt P25105); assay: Calcium assay of the endogenous PAF receptor in MCF10A cells; assay type: cell-based; conditions: parental MCF10A cells
T2 construct: endogenous in cells; host or cells: MCF10A (parental and GPR4-GFP-transfected)
Method: Measurement of [Ca^2+]i, was performed as described previously in Xu et al. (2000) Nat Cell Biol 2, 261-267. Briefly, pGPR4-GFP-transfected MCF10A cells were grown in specialized glass-bottom dishes (Bioptech, Inc., Butler, Pa.) and loaded with fura-2 in HEPES buffered saline. Using a dual-wavelength spectrofluorometer (RFK-6002, Photon Technology Int'l, So. Brunswick, N.J.) coupled to an inverted fluorescence microscope (Olympus, IX-70, Lake Success, N.Y.), GFP-positive cells were identified using an excitation wavelength of 488 nm, a dichroic 505 nm long-pass filter and an emitter filter at bandpass of 535 nm (Chroma Technology, Brattleboro, Vt.). Measurements of [Ca^2+]i were performed on individual GPR4-GFP positive cells at excitation wavelengths of 340 and 380 nm and an emission wavelength of 510 nm. Conversion of the 340/380 ratio value into [Ca^2+]i in nM was estimated by comparing the cellular fluorescence ratio with ratios acquired using fura-2 (free acid) in buffers containing known Ca^2+ concentrations. [Ca^2+]i was then calculated as described by Grynkiewicz et al. (1985) J Biol Chem 260, 3440-3450. All calcium assays were performed in the presence of 1 mM EGTA in the assay buffers. Therefore, intracellular calcium release, not calcium influx, was analyzed.
Therefore, it is unlikely that the increase in calcium induced by LPC was mediated by a PAF receptor.

TDAG8 [2] = molecular target: T3, TDAG8 (Homo sapiens, UniProt Q8IYL9); assay: MAP kinase reporter system in TDAG8 co-transfected HEK293 cells; assay type: cell-based; conditions: 1-5 μM
T3 construct: expressed in transfected cells
Excerpt: To further explore the TDAG8-mediated cellular response to SPC, MAP kinase activation was examined using the MAP kinase reporter system from Stratagene.

TDAG8 [3] = assay: TDAG8 expression in Jurkat cells by real-time quantitative RT-PCR; assay type: cell-based, human; conditions: 0.1 and 1 μM LPC, up to 24 hours
Method: (§1) Jurkat cells were treated with 0.1 and 1 μM LPC for various times (1, 2, 6, and 24 hours). At each time point, cells were collected and total RNA was extracted. Real-time quantitative PCR was utilized to determine relative amounts of GPR4 (shown in FIG. 1A and TDAG8 (shown in FIG. 1B) expressed under each condition. All PCR reactions were performed in triplicate.
(§2) In one scheme, total RNA is extracted from tissues using the RNeasy Total RNA System (Qiagen, Valencia, Calif.). One to five micrograms of total RNA are reverse transcribed using Superscript II RT (Gibco BRL, Rockville, Md.). Eight nanograms of derived cDNA are used as a template for real-time quantitative SYBR Green I PCR. Specific primers, that have already been established and used under these same conditions, are used for each individual receptor, with GAPDH being amplified in a separate tube as a housekeeping gene. The primers for GPR4 (Genbank accession number U2105 1) are 5′-[…]-3′ [SEQ ID NO. 1] and 5′-TCCAGTTGTCGTGGTGCAG-3′ [SEQ ID NO. 2] […] Amplified product is detected by measurement of SYBR Green I, which is added to the initial reaction mixture. […] The results are expressed as a fold-change in receptor expression levels compared to a baseline sample.
(§3) Jurkat cells were treated with 0.1 and 1 μM LPC for up to 24 hours followed by expression analysis of GPR4 and TDAG8 levels with real-time quantitative RT-PCR.

GPR4 [4] = assay: GPR4 expression in Jurkat cells by real-time quantitative RT-PCR; assay type: cell-based, human; conditions: 0.1 and 1 μM LPC, up to 24 hours
Method: as §1, §2, §3

cells = conditions: cited from earlier work

T1 sequence (P46093 whole entry): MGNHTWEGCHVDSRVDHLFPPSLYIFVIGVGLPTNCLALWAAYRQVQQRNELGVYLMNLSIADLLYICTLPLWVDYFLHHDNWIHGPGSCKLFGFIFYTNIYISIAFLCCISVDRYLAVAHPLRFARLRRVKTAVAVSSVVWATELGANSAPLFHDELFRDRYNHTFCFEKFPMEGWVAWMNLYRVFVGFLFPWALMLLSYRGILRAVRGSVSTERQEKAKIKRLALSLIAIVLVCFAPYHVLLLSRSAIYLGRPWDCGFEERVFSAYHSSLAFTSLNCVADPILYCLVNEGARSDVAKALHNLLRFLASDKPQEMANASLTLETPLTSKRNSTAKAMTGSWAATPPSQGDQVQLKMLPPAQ
T2 sequence (P25105 whole entry): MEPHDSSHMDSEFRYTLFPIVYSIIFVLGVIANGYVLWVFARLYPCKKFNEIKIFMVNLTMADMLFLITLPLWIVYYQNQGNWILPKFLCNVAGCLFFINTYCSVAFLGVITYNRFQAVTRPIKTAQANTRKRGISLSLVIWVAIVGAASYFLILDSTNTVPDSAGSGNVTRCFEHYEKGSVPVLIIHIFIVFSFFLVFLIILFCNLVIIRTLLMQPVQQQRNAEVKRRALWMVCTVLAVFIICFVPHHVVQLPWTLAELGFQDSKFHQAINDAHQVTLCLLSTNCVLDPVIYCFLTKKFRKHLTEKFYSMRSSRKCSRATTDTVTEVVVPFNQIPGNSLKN
T3 sequence (Q8IYL9 whole entry): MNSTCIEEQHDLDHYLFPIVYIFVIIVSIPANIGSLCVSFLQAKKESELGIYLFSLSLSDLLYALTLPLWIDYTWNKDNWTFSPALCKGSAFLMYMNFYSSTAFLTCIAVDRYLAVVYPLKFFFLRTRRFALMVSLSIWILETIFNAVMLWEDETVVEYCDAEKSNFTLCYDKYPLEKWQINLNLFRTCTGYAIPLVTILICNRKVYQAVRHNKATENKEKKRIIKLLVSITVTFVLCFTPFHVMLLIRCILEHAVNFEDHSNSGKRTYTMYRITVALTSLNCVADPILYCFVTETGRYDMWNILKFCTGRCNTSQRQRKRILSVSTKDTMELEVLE

Compound	EC50 (GPR4 [1]) [nM]	activation of SRE reporter (GPR4 [1]) [fold]	calcium increase through the endogenous PAF receptor in parental cells (endogenous PAF receptor)	activation of p42/44 MAP kinase (reporter luciferase activity) (TDAG8 [2])	regulation of TDAG8 expression (TDAG8 [3])	regulation of GPR4 expression (GPR4 [4])	concentration at which cells are lysed (cells) [µM]
CCCCCCCCCCCCCCCC(=O)OC[C@@H](O)COP(=O)([O-])OCC[N+](C)(C)C [16:0-LPC]	160	3.1					
CCCCCCCCCCCCC/C=C/[C@@H](O)[C@@H](N)COP(=O)([O-])OCC[N+](C)(C)C [SPC, Sphingosylphosphorylcholine]	63	4	not able to induce an increase in calcium	induced activation of p42/44 MAP kinase			
lysophosphatidylcholine [LPC]			not able to induce an increase in calcium	induced activation of p42/44 MAP kinase	time- and dose-dependent up regulation	time- and dose-dependent up regulation	> 30
